Measurements taken from PubChem BioAssay AID248 (DTP/NCI, 2004).
“And” between values parts separate entries of the source, which are not always exact repeats. Equal entries are not always repeated. Toxic doses and inconclusive results are not listed.

Test system: L1210 leukemia ip in BDF1 mice, survival T/C
Experiment: NCI In Vivo Anticancer Drug Screen. Data for tumor model L1210 Leukemia (intraperitoneal) in B6D2F1 (BDF1) mice
Conditions: higher = longer survival
Method in brief: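 Tumor was transplanted into mice, which were then dosed with test compound or vehicle alone. Survival was recorded for each group, and the treated figure was expressed relative to the control figure.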

[1] = endpoint: mean survival time, dose: 100.0 mg/kg/injection, schedule: Q04DX003 (ip), vehicle: Klucel (hydroxypropylcellulose) (HPC)
[2] = endpoint: mean survival time, dose: 200.0 mg/kg/injection, schedule: Q04DX003 (ip), vehicle: Klucel (hydroxypropylcellulose) (HPC)
[3] = endpoint: mean survival time, dose: 400.0 mg/kg/injection, schedule: Q04DX003 (ip), vehicle: Klucel (hydroxypropylcellulose) (HPC)
[4] = endpoint: mean survival time, dose: 100.0 mg/kg/injection, schedule: Q01DX001 (ip), vehicle: saline
[5] = endpoint: mean survival time, dose: 200.0 mg/kg/injection, schedule: Q01DX001 (ip), vehicle: saline
[6] = endpoint: mean survival time, dose: 400.0 mg/kg/injection, schedule: Q01DX001 (ip), vehicle: saline

For `O=NN(CCCl)C(=O)Nc1ccc(CC(=O)O)cc1`, the T/C (endpoint: mean survival time, dose: 8.0 mg/kg/injection, schedule: Q01DX001 (ip), vehicle: carboxymethylcellulose (CMC)) was 154 % of control, the T/C (endpoint: mean survival time, dose: 12.0 mg/kg/injection, schedule: Q01DX001 (ip), vehicle: carboxymethylcellulose (CMC)) was 189 % of control and the T/C (endpoint: mean survival time, dose: 18.0 mg/kg/injection, schedule: Q01DX001 (ip), vehicle: carboxymethylcellulose (CMC)) was 226 % of control. The T/C (endpoint: mean survival time, dose: 26.0 mg/kg/injection, schedule: Q01DX001 (ip), vehicle: carboxymethylcellulose (CMC)) was 236 % of control.

For `O=C(COc1cccc(C(=O)O)c1)Nc1ccccc1`, the T/C [1] was 95 % of control, the T/C [2] was 93 % of control and the T/C [3] was 92 % of control.

In the case of `O=C(NOCCCl)Nc1ccccc1`, the T/C (endpoint: mean survival time, dose: 125.0 mg/kg/injection, schedule: Q01DX Z (ip), vehicle: carboxymethylcellulose (CMC)) is reported as 96 % of control, the T/C (endpoint: mean survival time, dose: 200.0 mg/kg/injection, schedule: Q01DX Z (ip), vehicle: carboxymethylcellulose (CMC)) is reported as 96 % of control and the T/C (endpoint: mean survival time, dose: 250.0 mg/kg/injection, schedule: Q01DX Z (ip), vehicle: carboxymethylcellulose (CMC)) is reported as 107 % of control. For the same compound, the T/C (endpoint: mean survival time, dose: 500.0 mg/kg/injection, schedule: Q01DX Z (ip), vehicle: carboxymethylcellulose (CMC)) was 95 % of control.

For `CC(=O)Nc1ccc(S(N)(=O)=O)cn1`, the T/C (endpoint: mean survival time, dose: 100.0 mg/kg/injection, schedule: Q04DX003 (ip), vehicle: saline) was 102 % of control, the T/C (endpoint: mean survival time, dose: 200.0 mg/kg/injection, schedule: Q04DX003 (ip), vehicle: saline) was 89 % of control and the T/C (endpoint: mean survival time, dose: 400.0 mg/kg/injection, schedule: Q04DX003 (ip), vehicle: saline) was 86 % of control.

In the case of `NNC(=O)c1ccccc1NCCO`, the T/C [4] is reported as 101 % of control, the T/C [5] is reported as 97 % of control and the T/C [6] is reported as 101 % of control.

In the case of `CNc1ccc(Nc2cc(S(=O)(=O)O)c(N)c3c2C(=O)c2ccccc2C3=O)cc1`, the T/C [4] is reported as 110 % of control, the T/C [5] is reported as 98 % of control and the T/C [6] is reported as 93 % of control.

With `CCCCCCCCCCCCCCCCCCNC(=O)N1CC1` the T/C (endpoint: mean survival time, dose: 100.0 mg/kg/injection, schedule: Q01DX009 (ip), vehicle: saline with Tween-80) was 93 % of control, the T/C [1] was 88 % of control and the T/C (endpoint: mean survival time, dose: 200.0 mg/kg/injection, schedule: Q01DX009 (ip), vehicle: saline with Tween-80) was 94 % of control. For the same compound, the T/C [2] was 100 % of control, the T/C (endpoint: mean survival time, dose: 400.0 mg/kg/injection, schedule: Q01DX009 (ip), vehicle: saline with Tween-80) was 93 % of control and the T/C [3] was 93 % of control.

With `CCCCCCCCCCC/C=N\N(C)C` the T/C (endpoint: mean survival time, dose: 100.0 mg/kg/injection, schedule: Q04DX002 (ip), vehicle: Klucel (hydroxypropylcellulose) (HPC)) was 96 % of control, the T/C (endpoint: mean survival time, dose: 200.0 mg/kg/injection, schedule: Q04DX002 (ip), vehicle: Klucel (hydroxypropylcellulose) (HPC)) was 92 % of control and the T/C (endpoint: mean survival time, dose: 400.0 mg/kg/injection, schedule: Q04DX002 (ip), vehicle: Klucel (hydroxypropylcellulose) (HPC)) was 103 % of control.

In the case of `Cc1ccc(NCc2ccccc2O)c(C)c1`, the T/C (endpoint: mean survival time, dose: 100.0 mg/kg/injection, schedule: Q04DX003 (ip), vehicle: gum acacia) is reported as 94 % of control, the T/C (endpoint: mean survival time, dose: 200.0 mg/kg/injection, schedule: Q04DX003 (ip), vehicle: gum acacia) is reported as 101 % of control and the T/C (endpoint: mean survival time, dose: 400.0 mg/kg/injection, schedule: Q04DX003 (ip), vehicle: gum acacia) is reported as 99 % of control.

In the case of `CN(N=O)C(=O)NCCNC(=O)N(C)N=O`, the T/C (endpoint: mean survival time, dose: 150.0 mg/kg/injection, schedule: Q01DX Z (ip), vehicle: carboxymethylcellulose (CMC)) is reported as 108 % of control.

With `CC(=O)C=O` the T/C (endpoint: mean survival time, dose: 12.5 mg/kg/injection, schedule: Q01DX009 (ip), vehicle: saline) was 98 % of control, the T/C (endpoint: mean survival time, dose: 20.5 mg/kg/injection, schedule: Q01DX006 (ip), vehicle: saline) was 100 % of control and the T/C (endpoint: mean survival time, dose: 20.5 mg/kg/injection, schedule: Q ##X009 (ip), vehicle: saline) was 102 % of control. The T/C (endpoint: mean survival time, dose: 20.5 mg/kg/injection, schedule: Q## X Z (ip), vehicle: saline) was 101 % of control, the T/C (endpoint: mean survival time, dose: 25.0 mg/kg/injection, schedule: Q01DX009 (ip), vehicle: saline) was 88 % of control and the T/C (endpoint: mean survival time, dose: 29.5 mg/kg/injection, schedule: Q01DX006 (ip), vehicle: saline) was 105 % of control. The T/C (endpoint: mean survival time, dose: 29.5 mg/kg/injection, schedule: Q ##X009 (ip), vehicle: saline) was 98 % of control, the T/C (endpoint: mean survival time, dose: 29.5 mg/kg/injection, schedule: Q## X Z (ip), vehicle: saline) was 97 % of control and the T/C (endpoint: mean survival time, dose: 41.0 mg/kg/injection, schedule: Q03DX002 (ip), vehicle: saline) was 107 % of control. For the same compound, the T/C (endpoint: mean survival time, dose: 42.0 mg/kg/injection, schedule: Q01DX006 (ip), vehicle: saline) was 96 % of control, the T/C (endpoint: mean survival time, dose: 42.0 mg/kg/injection, schedule: Q ##X009 (ip), vehicle: saline) was 110 % of control and the T/C (endpoint: mean survival time, dose: 42.0 mg/kg/injection, schedule: Q## X Z (ip), vehicle: saline) was 110 % of control. The T/C (endpoint: mean survival time, dose: 50.0 mg/kg/injection, schedule: Q01DX009 (ip), vehicle: saline) was 93 % of control, the T/C (endpoint: mean survival time, dose: 50.0 mg/kg/injection, schedule: Q01DX009 (ip), vehicle: water) was 110 % of control and the T/C (endpoint: mean survival time, dose: 60.0 mg/kg/injection, schedule: Q01DX006 (ip), vehicle: saline) was 106 % of control and 107 % of control. For the same compound, the T/C (endpoint: mean survival time, dose: 60.0 mg/kg/injection, schedule: Q ##X009 (ip), vehicle: saline) was 91 % of control, the T/C (endpoint: mean survival time, dose: 60.0 mg/kg/injection, schedule: Q## X Z (ip), vehicle: saline) was 91 % of control and the T/C (endpoint: mean survival time, dose: 71.0 mg/kg/injection, schedule: Q03DX002 (ip), vehicle: saline) was 118 % of control. For the same compound, the T/C (endpoint: mean survival time, dose: 75.0 mg/kg/injection, schedule: Q01DX009 (ip), vehicle: water) was 113 % of control, the T/C (endpoint: mean survival time, dose: 93.0 mg/kg/injection, schedule: Q01DX001 (ip), vehicle: saline) was 113 % of control and the T/C (endpoint: mean survival time, dose: 100.0 mg/kg/injection, schedule: Q01DX009 (ip), vehicle: saline) was 97 % of control. For the same compound, the T/C (endpoint: mean survival time, dose: 100.0 mg/kg/injection, schedule: Q01DX009 (ip), vehicle: water) was 110 % of control, the T/C (endpoint: mean survival time, dose: 107.0 mg/kg/injection, schedule: Q03DX002 (ip), vehicle: saline) was 116 % of control and the T/C (endpoint: mean survival time, dose: 127.0 mg/kg/injection, schedule: Q01DX001 (ip), vehicle: saline) was 123 % of control. For the same compound, the T/C (endpoint: mean survival time, dose: 150.0 mg/kg/injection, schedule: Q01DX009 (ip), vehicle: water) was 103 % of control, the T/C (endpoint: mean survival time, dose: 160.0 mg/kg/injection, schedule: Q03DX002 (ip), vehicle: saline) was 111 % of control and the T/C [5] was 97 % of control. For the same compound, the T/C (endpoint: mean survival time, dose: 200.0 mg/kg/injection, schedule: Q01DX009 (ip), vehicle: saline) was 104 % of control, the T/C (endpoint: mean survival time, dose: 200.0 mg/kg/injection, schedule: Q01DX009 (ip), vehicle: water) was 91 % of control and the T/C (endpoint: mean survival time, dose: 400.0 mg/kg/injection, schedule: Q01DX009 (ip), vehicle: saline) was 111 % of control. The T/C (endpoint: median survival time, dose: 35.0 mg/kg/injection, schedule: Q01DX005 (ip), vehicle: other) was 104 % of control, the T/C (endpoint: median survival time, dose: 35.0 mg/kg/injection, schedule: Q01DX005 (ip), vehicle: saline sonified) was 105 % of control and the T/C (endpoint: median survival time, dose: 44.0 mg/kg/injection, schedule: Q01DX005 (ip), vehicle: other) was 104 % of control. For the same compound, the T/C (endpoint: median survival time, dose: 44.0 mg/kg/injection, schedule: Q01DX005 (ip), vehicle: saline sonified) was 105 % of control, the T/C (endpoint: median survival time, dose: 55.0 mg/kg/injection, schedule: Q01DX005 (ip), vehicle: other) was 106 % of control and the T/C (endpoint: median survival time, dose: 55.0 mg/kg/injection, schedule: Q01DX005 (ip), vehicle: saline sonified) was 111 % of control. The T/C (endpoint: median survival time, dose: 69.0 mg/kg/injection, schedule: Q01DX005 (ip), vehicle: other) was 107 % of control, the T/C (endpoint: median survival time, dose: 69.0 mg/kg/injection, schedule: Q01DX005 (ip), vehicle: saline sonified) was 111 % of control and the T/C (endpoint: median survival time, dose: 86.0 mg/kg/injection, schedule: Q01DX005 (ip), vehicle: other) was 110 % of control. The T/C (endpoint: median survival time, dose: 86.0 mg/kg/injection, schedule: Q01DX005 (ip), vehicle: saline sonified) was 111 % of control, the T/C (endpoint: median survival time, dose: 175.0 mg/kg/injection, schedule: Q01DX001 (ip), vehicle: other) was 101 % of control and the T/C (endpoint: median survival time, dose: 175.0 mg/kg/injection, schedule: Q01DX001 (ip), vehicle: saline sonified) was 100 % of control. For the same compound, the T/C (endpoint: median survival time, dose: 194.0 mg/kg/injection, schedule: Q01DX001 (ip), vehicle: other) was 101 % of control, the T/C (endpoint: median survival time, dose: 194.0 mg/kg/injection, schedule: Q01DX001 (ip), vehicle: saline sonified) was 100 % of control and the T/C (endpoint: median survival time, dose: 216.0 mg/kg/injection, schedule: Q01DX001 (ip), vehicle: other) was 98 % of control. For the same compound, the T/C (endpoint: median survival time, dose: 216.0 mg/kg/injection, schedule: Q01DX001 (ip), vehicle: saline sonified) was 100 % of control, the T/C (endpoint: median survival time, dose: 240.0 mg/kg/injection, schedule: Q01DX001 (ip), vehicle: other) was 118 % of control and the T/C (endpoint: median survival time, dose: 240.0 mg/kg/injection, schedule: Q01DX001 (ip), vehicle: saline sonified) was 116 % of control. The T/C (endpoint: median survival time, dose: 268.0 mg/kg/injection, schedule: Q01DX001 (ip), vehicle: other) was 107 % of control, the T/C (endpoint: median survival time, dose: 268.0 mg/kg/injection, schedule: Q01DX001 (ip), vehicle: saline sonified) was 105 % of control and the T/C (endpoint: median survival time, dose: 298.0 mg/kg/injection, schedule: Q01DX001 (ip), vehicle: other) was 116 % of control. For the same compound, the T/C (endpoint: median survival time, dose: 298.0 mg/kg/injection, schedule: Q01DX001 (ip), vehicle: saline sonified) was 116 % of control.
